Assay results taken from patent US20240279218A1 (Hoffmann-La Roche Inc., priority 2016, published 2024).

Tests used:
h-GABA-A α5β3γ2 [1] = molecular target: T1, h-GABA-A α5β3γ2 (Homo sapiens (Human), UniProt P18507+P31644); test: [3H]flumazenil competition binding assay, membranes of HEK293 cells expressing human GABAA receptors; conditions: displacement of [3H]flumazenil 0.5 nM, HEK293 cells expressing human receptors, mean of two determinations; read-out: Ki h-GABA-A α5β3γ2
Summary of the method: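 Displacement of [3H]flumazenil from membranes of HEK293 cells transiently expressing human α5β3γ2 receptors, in Krebs-tris buffer pH 7.5. Incubation to equilibrium, 1 h at 4° C., then filtration and scintillation counting. Ki is the mean of two determinations.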

h-GABA-A α5β3γ2 [2] = molecular target: T1, h-GABA-A α5β3γ2; test: Two-electrode voltage clamp electrophysiology in Xenopus oocytes expressing GABAA receptors, modulation of GABA EC20 current; format: cell-based; conditions: Xenopus oocytes; for Efficacy (GABA) %: % modulation of GABA EC20 = 100*(Fold increase−1); for Fold increase h-GABA-A α5β3γ2 oocyte: GABA EC20, test compound at approx. 30 fold its Ki
Summary of the method: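 Values are % modulation of an EC20 GABA response, derived point by point from the ratio of compound-exposed versus control current traces (extremum taken, 100×(fold−1)). Recordings used oocytes injected with human α5, β3, γ2 mRNA, clamped at −80 mV at room temperature, at least 3 oocytes each.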

Row | Ki (h-GABA-A α5β3γ2 [1]) | Efficacy (GABA) % (h-GABA-A α5β3γ2 [2]) | Fold increase h-GABA-A α5β3γ2 oocyte (h-GABA-A α5β3γ2 [2]) | SMILES
1 | 50.6 nM | 82% | 1.82 | Cc1ccc(-c2noc(C)c2COc2cnc(C(=O)NC3CC4(COC4)C3)cn2)cn1 [Example 101, 5-((5-methyl-3-(6-methylpyridin-3-yl)isoxazol-4-yl)methoxy)-N-(2-oxaspiro[3.3]heptan-6-yl)pyrazine-2-carboxamide]
2 | 20.7 nM | 21% | 1.21 | Cc1ccc(-c2noc(C)c2COc2cnc(C(=O)N[C@H]3CC[C@@H](C(F)(F)F)CC3)cn2)cn1 [Example 102, 5-((5-methyl-3-(6-methylpyridin-3-yl)isoxazol-4-yl)methoxy)-N-(cis-4-(trifluoromethyl)cyclohexyl)pyrazine-2-carboxamide]
3 | 79 nM | 81% | 1.81 | Cc1ccc(-c2noc(C)c2COc2ccc(C(=O)N[C@H]3CCCOC3)nn2)cn1 [Example 103, (S)-6-((5-methyl-3-(6-methylpyridin-3-yl)isoxazol-4-yl)methoxy)-N-(tetrahydropyran-3-yl)pyridazine-3-carboxamide]
4 | 66.3 nM | 43% | 1.43 | Cc1ccc(-c2noc(C)c2COc2cnc(C(=O)N[C@H]3CC[C@@](C)(O)CC3)cn2)cn1 [Example 104, N-(cis-4-hydroxy-4-methylcyclohexyl)-5-((5-methyl-3-(6-methylpyridin-3-yl)isoxazol-4-yl)methoxy)pyrazine-2-carboxamide]
5 | 22.7 nM | 101% | 2.01 | Cc1ccc(-c2noc(C)c2COc2cnc(C(=O)N[C@H]3CC[C@](C)(O)CC3)cn2)cn1 [Example 105, N-(trans-4-hydroxy-4-methylcyclohexyl)-5-((5-methyl-3-(6-methylpyridin-3-yl)isoxazol-4-yl)methoxy)pyrazine-2-carboxamide]
6 | 60.3 nM | 64% | 1.64 | Cc1ccc(-c2noc(C)c2COc2ccc(C(=O)NC3(C)CCOCC3)cn2)cn1 [Example 106, 6-((5-methyl-3-(6-methylpyridin-3-yl)isoxazol-4-yl)methoxy)-N-(4-methyltetrahydropyran-4-yl)nicotinamide]
7 | 9.6 nM | 69% | 1.69 | Cc1ccc(-c2noc(C)c2COc2cc3c(cn2)C(=O)N(C2CCSCC2)C3)cn1 [Example 107, 6-((5-methyl-3-(6-methylpyridin-3-yl)isoxazol-4-yl)methoxy)-2-(tetrahydro-2H-thiopyran-4-yl)-1H-pyrrolo[3,4-c]pyridin-3(2H)-one]
8 | 0.4 nM | 20% | 1.2 | Cc1ccc(-c2noc(C)c2COc2ccc(C(=O)NC3CCOCC3)cn2)nn1 [Example 108, 6-((5-methyl-3-(6-methylpyridazin-3-yl)isoxazol-4-yl)methoxy)-N-tetrahydropyran-4-yl-pyridine-3-carboxamide]
9 | 0.8 nM | 42% | 1.42 | CCC[C@@H](CO)NC(=O)c1ccc(OCc2c(-c3ccc(C)nn3)noc2C)nc1 [Example 109, N-((1S)-1-(hydroxymethyl)butyl)-6-((5-methyl-3-(6-methylpyridazin-3-yl)isoxazol-4-yl)methoxy)pyridine-3-carboxamide]
10 | 15.5 nM | 65% | 1.65 | Cc1ccc(-c2noc(C)c2COc2ccc(C(=O)NC3(C)CCSCC3)nn2)cn1 [Example 110, 6-((5-methyl-3-(6-methylpyridin-3-yl)isoxazol-4-yl)methoxy)-N-(4-methyltetrahydrothiopyran-4-yl)pyridazine-3-carboxamide]
